The values below come from ChEMBL document CHEMBL1201862, “PubChem BioAssay data set” (2004).

Some test systems named below: COLO 205; UO-31; Hs-578T; SK-MEL-5; CCRF-CEM; SK-MEL-28; PC-3; NCI-H226; SNB-19; SF-295; RPMI-8226; NCI/ADR-RES; NCI-H23; CAKI-1; HOP-62; KM12; MDA-N; M14; LOX IMVI; HCC 2998.
Common to all, as to test: growth of human tumour cells (NCI), 48 h

The structures appear in SMILES notation.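 Tested at 5 concentrations; 48 h exposure; 96-well plates; endpoints linearly interpolated, else capped at highest concentration. GI50: concentration for 50% inhibition of growth.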 Activity calls are given as the source filed them. Cut-off read from the data, not from the text of the source: active = GI50 up to about 1.1 µM and inactive = higher.

As to `COC(=O)C1Cc2cc3c(cc2C1=O)CCC3` (stereo not given), the GI50 in the test with COLO 205 was > 100 µM (inactive); in the test on UO-31 it was > 100 µM (inactive); in the test with Hs-578T, > 100 µM (inactive); with SK-MEL-5 it was > 100 µM (inactive); with CCRF-CEM, 92.7 µM (inactive); in the test on SK-MEL-28, > 100 µM (inactive). The GI50 in the test on PC-3, in the test on NCI-H226, in the test with SNB-19, in the test with SF-295, with RPMI-8226 and in the test on NCI/ADR-RES was > 100 µM (inactive) each time. In addition, the GI50 with NCI-H23, in the test on CAKI-1, in the test on HOP-62, in the test with KM12, in the test with MDA-N and in the test on M14 was > 100 µM (inactive) in each case. The GI50 in the test with LOX IMVI and in the test on HCC 2998 was > 100 µM (inactive) each time.

Regarding `CSC1=NS(=O)(=O)c2cc(C(=O)NN(C)C(=O)c3cc4c(cc3Cl)SC(SC)=NS4(=O)=O)c(Cl)cc2S1`, the GI50 in the test with COLO 205, with UO-31, with Hs-578T, in the test on SK-MEL-5, in the test with CCRF-CEM and with SK-MEL-28 was > 10 µM (inactive) throughout. Besides, the GI50 with PC-3, with NCI-H226, in the test with SNB-19, in the test on SF-295, with RPMI-8226 and in the test on NCI/ADR-RES was > 10 µM (inactive) in each case. The GI50 with NCI-H23, in the test on CAKI-1, with HOP-62, with KM12, in the test with MDA-N and in the test on M14 was > 10 µM (inactive) in each case. Moreover, the GI50 in the test on LOX IMVI and in the test on HCC 2998 was > 10 µM (inactive) in each case.

Regarding `O=C(c1ccccc1)c1c(C(F)(F)F)[n+]([O-])c2cc(Cl)c(Cl)cc2[n+]1[O-]`, the GI50 in the test on COLO 205 was 2.93 µM (inactive); with UO-31, 1.47 µM (inactive); in the test with Hs-578T, 0.849 µM (active); in the test on SK-MEL-5 it was 2 µM (inactive); with CCRF-CEM, 0.467 µM (active); with SK-MEL-28 it was 2.86 µM (inactive). Moreover, the GI50 with PC-3 is 1.18 µM (inactive); in the test on NCI-H226, 3.02 µM (inactive); with SNB-19 it was 1.56 µM (inactive); in the test on SF-295, 3.21 µM (inactive); with RPMI-8226, 0.373 µM (active); in the test on NCI/ADR-RES, 2.21 µM (inactive). The GI50 in the test on NCI-H23 is 0.565 µM (active); with CAKI-1, 1.58 µM (inactive); with HOP-62, 0.357 µM (active); with KM12, 0.548 µM (active); with MDA-N it was 1.79 µM (inactive); in the test with M14 it was 0.968 µM (active). The GI50 in the test with LOX IMVI is 0.41 µM (active); in the test with HCC 2998 it was 2.16 µM (inactive).

As for `N=C(N)SCc1ccc(Cl)cc1Cl.O=[N+]([O-])c1c(O)c(Cl)cc(Cl)c1Cl`, the GI50 in the test on COLO 205 was 14.2 µM (inactive); in the test on UO-31, 9.06 µM (inactive); in the test with Hs-578T, 20.7 µM (inactive); in the test on SK-MEL-5 it was 15.3 µM (inactive); with CCRF-CEM, 3.18 µM (inactive); in the test with SK-MEL-28, 28.9 µM (inactive). For the same compound, the GI50 is 11.9 µM (inactive) with PC-3; 20.5 µM (inactive) with NCI-H226; 19.4 µM (inactive) in the test on SNB-19; 13.5 µM (inactive) in the test on SF-295; 1.81 µM (inactive) in the test on RPMI-8226; 19.5 µM (inactive) with NCI/ADR-RES. Further, the GI50 was 13.4 µM (inactive) in the test with NCI-H23; 11 µM (inactive) in the test on CAKI-1; 14.5 µM (inactive) in the test on HOP-62; 13.7 µM (inactive) in the test on KM12; 7.46 µM (inactive) with MDA-N; 11.4 µM (inactive) in the test with M14. The GI50 is 16.7 µM (inactive) in the test with LOX IMVI and 8.18 µM (inactive) with HCC 2998.

`O=C(NC(N1CCN(c2cc3c(cc2F)c(=O)c(C(=O)O)cn3C2CC2)CC1)(C(F)(F)F)C(F)(F)F)c1ccccc1`: the GI50 is 19.1 µM (inactive) with COLO 205; 30.5 µM (inactive) in the test with UO-31; 40.9 µM (inactive) with Hs-578T; 26 µM (inactive) in the test on SK-MEL-5; 24.7 µM (inactive) with CCRF-CEM; 55.8 µM (inactive) in the test on SK-MEL-28. For the same compound, the GI50 with PC-3 was 45.1 µM (inactive); in the test on NCI-H226, 34.1 µM (inactive); in the test with SNB-19, 33.9 µM (inactive); with SF-295, 40.6 µM (inactive); in the test with RPMI-8226 it was 27.7 µM (inactive); in the test on NCI/ADR-RES, 46 µM (inactive). For the same compound, the GI50 with NCI-H23 was 25.9 µM (inactive); with CAKI-1 it was 22.9 µM (inactive); with HOP-62, 38.5 µM (inactive); in the test with KM12 it was 29.2 µM (inactive); in the test on MDA-N it was 39.6 µM (inactive); in the test on M14, 47.4 µM (inactive). The GI50 in the test with LOX IMVI is 33.9 µM (inactive); in the test with HCC 2998, 23.8 µM (inactive).

As for `C=C1c2nc3ccccc3n2C=C(c2ccc(OC)cc2)N1c1ccc(OCCN2CCCCC2)cc1`, the GI50 in the test on COLO 205 was 18.7 µM (inactive); in the test with UO-31, 8.22 µM (inactive); in the test with Hs-578T it was 11.2 µM (inactive); in the test on SK-MEL-5, 7.45 µM (inactive); with CCRF-CEM, 2.79 µM (inactive); with SK-MEL-28, 31.2 µM (inactive). Moreover, the GI50 was 15.2 µM (inactive) with PC-3; 28.2 µM (inactive) in the test on NCI-H226; 11.3 µM (inactive) with SNB-19; 8.85 µM (inactive) in the test with SF-295; 2.9 µM (inactive) in the test with RPMI-8226; 4.73 µM (inactive) in the test on NCI/ADR-RES. The GI50 is 6.32 µM (inactive) with NCI-H23; 13.4 µM (inactive) in the test on CAKI-1; 35.6 µM (inactive) in the test on HOP-62; 8 µM (inactive) in the test on KM12; 19.7 µM (inactive) in the test with MDA-N; 14.2 µM (inactive) in the test on M14. The GI50 is 7.41 µM (inactive) with LOX IMVI and 16 µM (inactive) with HCC 2998.

Consider `N#C/C(N)=C(\C#N)NC(=O)C(=O)N/C(C#N)=C(\N)C#N`, for which the GI50 in the test with COLO 205 is > 100 µM (inactive); in the test with UO-31, > 100 µM (inactive); with Hs-578T it was > 100 µM (inactive); with SK-MEL-5, > 100 µM (inactive); with CCRF-CEM, 77.6 µM (inactive); in the test on SK-MEL-28, > 100 µM (inactive). Also, the GI50 with PC-3 is > 100 µM (inactive); in the test with NCI-H226, > 100 µM (inactive); in the test with SNB-19, > 100 µM (inactive); in the test with SF-295 it was 57.8 µM (inactive); in the test on RPMI-8226 it was > 100 µM (inactive); in the test with NCI/ADR-RES, > 100 µM (inactive). Also, the GI50 in the test on NCI-H23, in the test on CAKI-1, with HOP-62, in the test on KM12, in the test with MDA-N and with M14 was > 100 µM (inactive) in each case. Moreover, the GI50 in the test on LOX IMVI and in the test on HCC 2998 was > 100 µM (inactive) each time.

On to `CC(CC(=O)N1C2CC3CCC2(CS1(=O)=O)C3(C)C)[Si](C)(C)C` (stereo not given), for which the GI50 with COLO 205, in the test with UO-31, in the test with Hs-578T, in the test on SK-MEL-5, with CCRF-CEM and in the test on SK-MEL-28 was > 100 µM (inactive) throughout. Further, the GI50 in the test with PC-3 is 61.5 µM (inactive); in the test with NCI-H226, > 100 µM (inactive); with SNB-19, > 100 µM (inactive); in the test on SF-295, > 100 µM (inactive); with RPMI-8226 it was > 100 µM (inactive); with NCI/ADR-RES it was > 100 µM (inactive). Further, the GI50 in the test with NCI-H23, in the test on CAKI-1, in the test with HOP-62, in the test on KM12, with MDA-N and in the test on M14 was > 100 µM (inactive) throughout. The GI50 with LOX IMVI and in the test with HCC 2998 was > 100 µM (inactive) in each case.

With `CN(C)CCn1c(=O)c2ccc3c4c(nn3CCN(C)C)c3cc(N)ccc3n(c1=O)c24`, the GI50 in the test on COLO 205 was < 0.0239 µM (active); in the test with UO-31, < 0.0132 µM (active); with Hs-578T, 0.091 µM (active); in the test on SK-MEL-5 it was 0.0516 µM (active); in the test with CCRF-CEM it was < 0.0126 µM (active); in the test with SK-MEL-28, 0.0646 µM (active). Moreover, the GI50 is < 0.0153 µM (active) in the test with PC-3; 0.0791 µM (active) with NCI-H226; < 0.0111 µM (active) in the test with SNB-19; 0.0145 µM (active) with SF-295; < 0.01 µM (active) in the test with RPMI-8226; 0.0349 µM (active) with NCI/ADR-RES. Further, the GI50 in the test with NCI-H23 is < 0.01 µM (active); in the test on CAKI-1, 0.0741 µM (active); with HOP-62, < 0.01 µM (active); in the test with KM12, < 0.0196 µM (active); in the test with MDA-N it was < 0.0239 µM (active); in the test on M14, 0.0259 µM (active). The GI50 with LOX IMVI was 0.0154 µM (active); in the test on HCC 2998 it was < 0.01 µM (active).

In the case of `Clc1ccccc1/C=C/c1ccnc2ccccc12`, the GI50 in the test with COLO 205 is 13.8 µM (inactive); in the test on UO-31, 17.3 µM (inactive); in the test with Hs-578T it was 20.7 µM (inactive); in the test on SK-MEL-5, 15.1 µM (inactive); in the test on CCRF-CEM it was 20.5 µM (inactive); with SK-MEL-28, 19.6 µM (inactive). The GI50 with PC-3 is 16.4 µM (inactive); in the test with NCI-H226, 16.8 µM (inactive); with SNB-19, 16.8 µM (inactive); in the test with SF-295, 15.7 µM (inactive); in the test on RPMI-8226, 7.8 µM (inactive); in the test with NCI/ADR-RES it was 15.2 µM (inactive). Also, the GI50 in the test with NCI-H23 was 14.1 µM (inactive); in the test on CAKI-1, 16.9 µM (inactive); in the test with HOP-62, 16.9 µM (inactive); in the test on KM12 it was 17.4 µM (inactive); in the test on MDA-N it was 14.6 µM (inactive); with M14 it was 17.3 µM (inactive). Moreover, the GI50 in the test with LOX IMVI was 18.4 µM (inactive); in the test on HCC 2998, 18.2 µM (inactive).
